Measurements as given in patent US20050222207A1, “Phosphodiesterase 4 inhibitors, including N-substituted diarylamine analogs” (priority 2003, published 2005).

Legend:
rats [1] = assay: Passive avoidance in rats, in vivo test for learning and memory (MK-801 amnesia); design: species or system rat; conditions: MK-801 0.1 mg/kg, retention test 24 hours after shock, compared to vehicle, p<0.001
Experimental: The test was performed as previously described (Zhang, H.-T., Crissman, A. M., Dorairaj, N. R., Chandler, L. J., and O'Donnell, J. M., Neuropsychopharmacology, 2000, 23, 198-204.). The apparatus (Model E10-16SC, Coulbourn Instruments, Allentown, Pa.) consisted of a two-compartment chamber with an illuminated compartment connected to a darkened compartment by a guillotine door. The floor of the darkened compartment consisted of stainless steel rods through which an electric foot-shock could be delivered from a constant current source. All experimental groups were first habituated to the apparatus the day before the start of the experiment. During the training, the rat (Male Spraque-Dawley (Harlan) weighing 250 to 350 g) was placed in the illuminated compartment facing away from the closed guillotine door for 1 minute before the door was raised. The latency for entering the darkened compartment was recorded. After the rat entered the darkened compartment, the door was closed and a 0.5 mA electric shock was administered for 3 seconds. […] The latency for entering the darkened compartment was recorded for up to 180 seconds, at which time the trial was terminated.
(§1) All data were analyzed by analyses of variance (ANOVA); individual comparisons were made using Kewman-Keuls tests. […]

rats [2] = assay: Radial arm maze task in rats, in vivo test for learning and memory (MK-801 amnesia); design: species or system rat; conditions: MK-801 0.1 mg/kg i.p., compared to control, p<0.01
Experimental: The test was performed as previously described (Zhang, H.-T., Crissman, A. M., Dorairaj, N. R., Chandler, L. J., and O'Donnell, J. M., Neuropsychopharmacology, 2000, 23, 198-204.). Five days after initial housing, rats (male Spraque-Dawley (Harlan) weighing 250 to 350 g) were placed in the eight-arm radial maze (each arm was 60×10×12 cm high; the maze was elevated 70 cm above the floor) for acclimation for two days. Rats were then placed individually in the center of the maze for 5 minutes with food pellets placed close to the food wells, and then, the next day, in the wells at the end of the arms; 2 sessions a day were conducted. Next, four randomly selected arms were then baited with one pellet of food each. The rat was restricted to the center platform (26 cm in diameter) for 15 seconds and then allowed to move freely throughout the maze until it collected all pellets of food or 10 minutes passed, whichever came first. Four parameters were recorded: 1) working memory errors, i.e., entries into baited arms that had already been visited during the same trial; 2) reference memory errors, i.e., entries into unbaited arms; 3) total arm entries; and 4) the test duration (seconds), i.e., the time spent in the collection of all the pellets in the maze. […]
as §1

SMILES	melting point [°C]	latency for entering the darkened compartment (rats [1])	frequency of reference memory errors (rats [2])	frequency of working memory errors (rats [2])
COc1cc(N(Cc2cncs2)c2ccc(C(=O)O)cc2)ccc1C(N)=O	196.7 to 196.8			
C[C@]12N[C@H](Cc3ccccc31)c1ccccc12 [MK-801]		markedly reduced	increased	increased
